Reference: PMC12295927, “Design, Synthesis, and Testing of 1,2,3-Triazolo-Quinobenzothiazine Hybrids for Cytotoxic and Immunomodulatory Activity” (International Journal of Molecular Sciences, 2025)

What was measured:
[1] = tested on: MGC-803 gastric cancer cells; parameters: method as in PMID 30345465; details: cited from earlier work
[2] = tested on: xenografted MGC-803 tumor; parameters: method as in PMID 30345465; details: oral study; cited from earlier work
[3] = tested on: BEAS-2B; assay: Alamar Blue cytotoxicity test, BEAS-2B; type: cell-based, Human; details: Homo sapiens, 24 h, 24 h incubation, read-out: IC50 values for BEAS-2B line
Experimental: The cytotoxicity of the tested chemical compounds MJ1–MJ20 was tested using the Alamar Blue test. The experiment was conducted on cell lines BEAS-2B (Figure 7), HCT116 (Figure 8), U2OS (Figure 9), MCF7 (Figure 10), SH-SY5Y (Figure 11), NHDF (Figure 12), and A549 (Figure 13). Cells were seeded in 96-well plates and incubated with the tested compounds for 24 h. The test result is the IC50 parameter, which is a measure of cytotoxic activity expressed by the concentration of the substance that causes the death of half of the analyzed cells compared to the control.
In cytotoxicity studies, the Alamar Blue test was used, which is based on the ability of living cells to reduce the non-fluorescent dye resazurin to fluorescent resorufin, which reflects the metabolic activity of cells. BEAS-2B, NHDF, HCT116, MCF7, A549, SH-SY5Y and U2OS cell lines were cultured under standard conditions, in DMEM medium supplemented with 10% FBS and 1% penicillin/streptomycin, at 37 °C, 5% CO2 and 95% humidity. Cells were seeded in 96-well plates at 1 × 10^4 cells per well and incubated for 24 h. Then, the tested compounds (MJ1–MJ20) were added at different concentrations (from 6.25 µM to 100 µM). The control contained cells untreated with the tested compounds. After 24 h of incubation, 10 µL of Alamar Blue solution was added to each well and incubated for another 2–4 h under the same conditions. The signal was measured spectrophotometrically at wavelengths of 570 nm (for resorufin) and 600 nm (for resazurin) or optionally fluorimetrically, using an excitation maximum of 570 nm and an emission maximum of 585 nm. The results were presented as percentage of cell survival relative to the control, calculating the ratio of absorbance or fluorescence of the sample to the control value. The Alamar Blue assay, due to its sensitivity and non-toxicity, allows for an accurate assessment of metabolic activity and cell survival in response to the tested quinobenzothiazines.

[4] = tested on: BCL2 gene; assay: RT-qPCR BCL2 gene expression in BEAS-2B; type: cell-based, Human; details: Homo sapiens, 24 h, reference gene RPL41, vs untreated control, read-out: Relative level of expression, BCL2 gene
Experimental: (§1) Real-time polymerase chain reaction was performed for the reference gene RPL41 (ribosomal protein L41) and the tested genes: BCL2, AIFM2, MDM2, IL6 and IL8. […] The BEAS-2B line was selected for the experiment. The expression level of selected genes was measured after 24 h of incubation with the tested substances MJ1–MJ20 at a concentration of 100 μM (Table 3).
The RT-qPCR experiment was performed for the BEAS-2B cell line. In this experiment, the BCL2 gene was studied, and RPL41 was used as the reference gene (Figure 14).
(§2) Gene expression studies used quantitative RT-qPCR to assess the effect of the tested quinobenzothiazines (MJ1–MJ20) on the expression of apoptosis-related genes (BCL2, AIFM2, MDM2) and pro-inflammatory cytokines (IL6, IL8) (Table 4).
(§3) BEAS-2B and HCT116 cells were seeded in 6-well plates at 2 × 10^5 cells per well and cultured in RPMI-1640 (BEAS-2B) or DMEM (HCT116) medium supplemented with 10% FBS and 1% penicillin/streptomycin at 37 °C, 5% CO2 and 95% humidity. After 24 h of incubation, the tested compounds were added at a concentration of 100 µM. After 24 h, the medium was removed from the cells, washed with PBS solution, 0.5 mL of trypsin was added per well and after 5 min it was neutralized with medium. The obtained cell suspension was centrifuged for 3 min at 2000 rpm, the supernatant was removed, and the obtained pellet was suspended in 400 µL of phenozol. Samples were frozen at −20 °C and stored until further experiment and RNA isolation.
(§4) Total RNA was isolated from cells using the A&A Biotechnology Total RNA Mini kit according to the manufacturer’s protocol. RNA quality and quantity were assessed using a NanoDrop 2000 spectrophotometer at 260/280 nm. Reverse transcription was performed using the protocol (EURx NG dART RT Kit) to obtain cDNA. After incubation, samples were placed in a freezer (−20 °C) and stored until further analysis.
(§5) The experiment was performed according to the protocol (Brilliant III Ultra Fast SYBR® Green QPCR Master Mix, Quick Reference Guide for the Bio-Rad CFX96 Real-Time PCR Detection System). RT-qPCR reaction was performed using specific primers for target genes (BCL2, AIFM2, MDM2, IL6, IL8). Gene expression was normalized to the expression of the reference gene RPL41. Reaction profiles and results were performed using Bio-Rad CFX Maestro 1.1 software from Bio-Rad. Analysis and calculations of the results obtained during RT-qPCR were performed using Microsoft Excel.
(§6) The results were analyzed using the R = 2^−ΔΔCt method, which allows for determining the relative level of gene expression (R) compared to the control. Each experiment was performed in three technical and biological replicates. RT-qPCR allowed for precise assessment of changes in the expression of genes related to the processes of apoptosis and inflammatory response under the influence of quinobenzothiazines, which allowed for identifying their potential mechanisms of action at the molecular level.

[5] = tested on: MDM2 gene; assay: RT-qPCR MDM2 gene expression in BEAS-2B; type: cell-based, Human; details: Homo sapiens, 24 h, reference gene RPL41, vs untreated control, read-out: Relative level of expression, MDM2 gene
Experimental: as §1
The RT-qPCR experiment was performed for the BEAS-2B cell line. In this experiment, the MDM2 gene was studied and RPL41 was used as reference gene (Figure 15).
as §2, §3, §4, §5, §6

[6] = tested on: AIFM2 gene; assay: RT-qPCR AIFM2 gene expression in BEAS-2B; type: cell-based, Human; details: Homo sapiens, 24 h, reference gene RPL41, vs untreated control, read-out: Relative level of expression, AIFM2 gene
Experimental: as §1
The RT-qPCR experiment was performed for the BEAS-2B cell line. In this experiment, the AIFM2 gene was studied and RPL41 was used as reference gene (Figure 16).
as §2, §3, §4, §5, §6

[7] = tested on: IL6 gene; assay: RT-qPCR IL6 gene expression in BEAS-2B; type: cell-based, Human; details: Homo sapiens, 24 h, reference gene RPL41, vs untreated control, read-out: Relative level of expression, IL6 gene
Experimental: as §1
(§7) The RT-qPCR experiment was performed for the BEAS-2B cell line. In this experiment, the IL6 and IL8 genes were studied and RPL41 was used as a reference gene (Figure 17 and Figure 18).
as §2, §3, §4, §5, §6

[8] = tested on: IL8 gene; assay: RT-qPCR IL8 gene expression in BEAS-2B; type: cell-based; details: Homo sapiens, 24 h, reference gene RPL41, vs untreated control, read-out: Relative level of expression, IL8 gene
Experimental: as §1, §7, §2, §3, §4, §5, §6

Row | Compound | IC50 [1] | Growth of xenografted MGC-803 tumor in vivo [2] | IC50 [3] | fold induction at 100 µM [4] | fold induction at 100 µM [5] | fold induction at 100 µM [6] | fold induction at 100 µM [7] | fold induction at 100 µM [8]
1 | COc1ccc(-n2cc(CN3c4ccccc4Sc4ccccc43)nn2)cc1 [compound A] | 1.2 µM | effectively inhibit the growth | – | – | – | – | – | –
2 | Clc1ccc(Cn2cc(CN3c4ccccc4Sc4cc5ccccc5nc43)nn2)cc1 [MJ3, 6-[(1-(4-Chlorobenzyl)-1H-1,2,3-triazol-4-yl)methyl]-quino[3,2-b]benzo[1,4]thiazine] | – | – | 75.4 µM | 5.7 | 5.9 | 1.3 | 1.3 | 0.3
3 | Fc1ccc2c(c1)Sc1cc3ccccc3nc1N2Cc1cn(Cc2ccccc2)nn1 [MJ6, 9-Fluoro-6-[(1-benzyl-1H-1,2,3-triazol-4-yl)-methyl]-quino[3,2-b]benzo[1,4]thiazine] | – | – | 72.9 µM | 8.5 | 5.1 | 1.8 | 3.2 | 0.1
4 | c1ccc(Cn2cc(CN3c4ccccc4Sc4cc5ccccc5nc43)nn2)cc1 [MJ1] | – | – | 73.8 µM | 23 | 5.4 | 2.4 | 3 | 0.3
